{"source": "patent US20090061515A1", "about": "“Methods of inhibiting or suppressing cellular proliferation” (priority 2007, published 2009)", "test_system": "Human Coronary Artery Endothelial Cells (HCAEC)", "test": "CyQuant cell number / proliferation, HCAEC (Example 7)", "type": "cell-based", "conditions": "1 mg/ml, after 96 hours post agent treatment, not following 24 hours exposure only", "protocol": "Cells were exposed to the test compounds for 24 to 48 hours and then allowed to grow for 96 hours in regular media (without test compound). The final concentrations for cell treatment were as follows: compounds 13358-18-1, 13358-18-2, 13358-18-4, and 13358-18-6 were evaluated at 10 mg/ml, 1 mg/ml, 100 micrograms/ml, and 10 micrograms/ml. Compounds 13358-18-3 and 13358-18-5 were evaluated at 50 mg/ml, 10 mg/ml, 1 mg/ml, and 100 micrograms/ml.\nThree assays were used to look at the proliferation, viability and cytotoxicity of the compounds on the cells. A non-radioactive cytotoxicity assay available under the trade designation CytoTox 96 from Promega Corporation (Madison, Wis.) is designed to determine the cytotoxicity of a substance by quantitatively measuring the presence of lactate dehydrogenase (LDH) in cell culture supernatant. LDH is released in cells that are undergoing cell death and the assay converts it to a red formazan product that can allows for the proportional amount of LDH absorbance to be read. A cell proliferation assay available under the trade designation CyQuant from Invitrogen Corporation (Carlsbad, Calif.) determines the density of cells in culture by eluding a green fluorescent dye which fluoresces when bound to cellular nucleic acids. The amount of nucleic acid present is proportional to the amount of living cells in culture, therefore an accurate cell count can be obtained. A luminescent cell viability assay available under the trade designation CellTiter-Glo from Promega Corporation (Madison, Wis.) uses the amount ATP present in the cell cytoplasm as an indicator for metabolic activity. The amount of ATP present is proportional to the measured amount of a luminescent signal. This assay was used to confirm if the cells are still viable after exposure to the test compounds.", "data": [{"molecule": "CC(=O)CCC(O)C(O)c1ccccc1", "note": "(stereo not drawn) [Compound 13358-18-1, 5,6-dihydroxy-6-phenyl-hexan-2-one]", "values": [{"measurement": "cell number and viability", "result": "some antiproliferative effect with viable cells"}]}, {"molecule": "O=C1CCCCC1CC(O)CO", "note": "(stereo not drawn) [Compound 13358-18-4, 2-(2′,3′-dihydroxypropyl)-cyclohexanone]", "values": [{"measurement": "cell number and viability", "result": "some antiproliferative effect with viable cells"}]}, {"molecule": "CC(=O)OCC(O)CO", "note": "(stereo not drawn) [Compound 13358-18-5, 2,3-dihydroxy-propyl acetate]", "values": [{"measurement": "cell number and viability", "result": "some antiproliferative effect with viable cells"}]}]}
